These results are taken from publication PMC6746705, “Distinct effects of Q925 mutation on intracellular and extracellular Na^+ and K^+ binding to the Na^+, K^+-ATPase” (Scientific Reports, 2019).

As usually defined, the IC50 is the concentration that inhibits the measured activity by half.

The test relates to T1, endogenous COS-1 cell Na+, K+-ATPase.
T1 construct: gene ATP1A1; endogenous enzyme in COS-1 plasma membranes
As to the kind of experiment: high-affinity phase of biphasic ouabain inhibition of Na+,K+-ATPase activity in plasma membranes. It counts as biochemical.

On to `C[C@@H]1O[C@@H](O[C@H]2C[C@@H](O)[C@]3(CO)[C@H]4[C@H](O)C[C@]5(C)[C@@H](C6=CC(=O)OC6)CC[C@]5(O)[C@@H]4CC[C@]3(O)C2)[C@H](O)[C@H](O)[C@H]1O` [ouabain], for which the IC50 was ~1 µM.
